Structures are written as SMILES. pKi: −log10 of the molar value.

Sequence of 5-hydroxytryptamine receptor 7 (P50407 whole entry): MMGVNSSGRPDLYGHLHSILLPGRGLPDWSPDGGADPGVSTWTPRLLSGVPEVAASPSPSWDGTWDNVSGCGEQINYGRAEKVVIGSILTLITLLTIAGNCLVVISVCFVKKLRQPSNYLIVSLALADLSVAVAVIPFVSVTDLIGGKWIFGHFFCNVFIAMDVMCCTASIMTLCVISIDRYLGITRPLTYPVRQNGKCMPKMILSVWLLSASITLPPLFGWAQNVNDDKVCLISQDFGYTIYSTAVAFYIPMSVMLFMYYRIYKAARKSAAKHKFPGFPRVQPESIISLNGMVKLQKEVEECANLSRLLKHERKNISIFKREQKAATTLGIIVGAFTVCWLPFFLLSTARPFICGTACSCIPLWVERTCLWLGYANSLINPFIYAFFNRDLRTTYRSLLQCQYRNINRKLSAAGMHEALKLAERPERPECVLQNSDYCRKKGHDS

This test concerns the target 5-hydroxytryptamine receptor 7 (Cavia porcellus, UniProt P50407).
As usually defined, the pKi is the negative decadic logarithm of the Ki, by convention in mol/L. Higher therefore signals a small Ki. `CCCN(CCC)C1CCc2cccc(O)c2C1` (configuration not stated) gave a negative logarithm of the Ki (pKi) of 7.30.
The same measure for `CC[C@@H](CO)NC(=O)[C@@H]1C=C2c3cccc4c3c(cn4C)C[C@H]2N(C)C1`: 7.40.
`CN(C)CCc1c[nH]c2ccc(O)cc12` [3-[2-(dimethylamino)ethyl]indol-5-ol]: the pKi is 7.70. This pKi lies 0.30 log units higher than the previous one.
On to `O=C(CCCN1CCC2(CC1)C(=O)NCN2c1ccccc1)c1ccc(F)cc1` [8-[4-(4-fluorophenyl)-4-oxidanylidene-butyl]-1-phenyl-1,3,8-triazaspiro[4.5]decan-4-one], for which the pKi was 7.00.
Compound `CNS(=O)(=O)Cc1ccc2[nH]cc(CCN(C)C)c2c1` [Sumax] showed a pKi of 6.60.
The same measure for `NCCc1c[nH]c2ccc(O)cc12` [[3H]-5-HT]: 9.00; for `COc1ccc2[nH]cc(CCN)c2c1` [tryptamine, 5-Methoxy]: 9.00.

The values above are taken from BindingDB's records for doi:10.1046/j.1471-4159.1994.63020456.x (Syntex Discovery Research, 1994).
